This assay deals with T1, SIRT1 (histone deacetylase) (Homo sapiens, UniProt Q96EB6).
T1 construct: purchased BIOMOL Research Laboratories, Inc., Plymouth Meeting, Pa
T1 sequence (Q96EB6 1-747): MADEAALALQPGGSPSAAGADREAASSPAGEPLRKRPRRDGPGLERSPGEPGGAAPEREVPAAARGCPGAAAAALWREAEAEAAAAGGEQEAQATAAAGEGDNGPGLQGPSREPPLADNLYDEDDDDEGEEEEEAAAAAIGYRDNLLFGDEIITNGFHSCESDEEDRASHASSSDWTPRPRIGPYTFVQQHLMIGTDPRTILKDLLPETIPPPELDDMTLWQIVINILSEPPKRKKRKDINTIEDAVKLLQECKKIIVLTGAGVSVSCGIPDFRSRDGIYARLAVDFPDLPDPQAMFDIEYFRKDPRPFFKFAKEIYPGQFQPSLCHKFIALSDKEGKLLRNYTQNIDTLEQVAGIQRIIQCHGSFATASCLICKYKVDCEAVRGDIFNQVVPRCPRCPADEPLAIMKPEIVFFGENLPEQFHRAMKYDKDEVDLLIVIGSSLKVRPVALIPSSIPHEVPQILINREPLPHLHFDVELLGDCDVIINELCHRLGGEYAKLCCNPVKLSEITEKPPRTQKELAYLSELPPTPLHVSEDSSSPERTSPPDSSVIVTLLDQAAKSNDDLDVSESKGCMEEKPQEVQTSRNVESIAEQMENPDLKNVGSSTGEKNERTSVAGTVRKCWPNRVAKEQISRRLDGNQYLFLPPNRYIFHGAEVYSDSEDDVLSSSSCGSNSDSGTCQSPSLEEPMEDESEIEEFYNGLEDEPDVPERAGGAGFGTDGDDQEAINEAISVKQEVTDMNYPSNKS
Put plainly: Cell-based fluorescence deacetylase assay, SIRT1 Fluorimetric Drug Discovery Kit (BIOMOL). An excerpt: A cell-based fluorescence deacetylase assay, SIRT1 Fluorimetric Drug Discovery Kit, obtained from BIOMOL Research Laboratories, Inc., Plymouth Meeting, Pa. was used to measure the effects of various polyphenols in apple extract on histone deacetylase activity.

This passage reports Histone deacetylase activity results from patent US20060189512A1, “Compositions containing botanical extracts rich in phlorizin and methods for using such compositions in blood glucose modification and to affect aging” (priority 2005, published 2006).

Under “concentration 500 micromolar”, `O=C(CCc1ccc(O)cc1)c1c(O)cc(O)cc1O` [Phloretin] yielded a Histone deacetylase activity of 1.94 × baseline. Turning to `O=C(CCc1ccc(O)cc1)c1c(O)cc(O)cc1O[C@@H]1O[C@H](CO)[C@@H](O)[C@H](O)[C@H]1O` [Phlorizin], for the setting “concentration 100 micromolar”, the Histone deacetylase activity is given as 1.36 × baseline. As to `O=c1c(O)c(-c2ccc(O)c(O)c2)oc2cc(O)cc(O)c12` [Quercetin], the Histone deacetylase activity (concentration 500 micromolar) stood at 4.59 × baseline. As to Catechins, the Histone deacetylase activity (concentration 500 micromolar) is on record as 1.26-1.53 × baseline.
